pIC50: −log10 of the molar value. “Also recorded” adds a separate entry of the source. Like-named read-outs stand apart in the source and are kept apart here. Each block holds one molecule with its values, some of them ahead of it.
Key:
AMPK [1] = assay: AMPK phosphorylation Western blot in MCF7; assay type: cell-based; conditions: for AMPK phosphorylation relative to control: MCF7, 6 hours, metformin, buformin, phenformin 1 mM, HBB 20 uM
Method: Western blotting analysis was performed in triplicate.
Cells were plated in complete media in the presence of serum (10% FBS) and cultured at 37° C. with 5% CO2 and treated with biguanides for 6 hours before harvesting. Total protein was extracted and analyzed by Western-blotting with GAPDH as an internal control.
(§1) Cells were plated in complete media in the presence of serum (10% FBS) and cultured at 37° C. with 5% CO2 and treated with 14,15-EET or EtOH control for 24 hours before harvesting. Total protein was extracted and analyzed by Western-blotting with GAPDH as an internal control.

AMPK [2] = assay: AMPK phosphorylation Western blot in MDA-MB-231; assay type: cell-based; conditions: MDA-MB-231, 1 uM 14,15-EET, 24 hours
Method: as §1, with “FIG. 38 illustrates that 14,15-EET inactivates AMPK in MCF7 line but not in MDA-MB-231 line. Cells” for “Cells”

MDA-MB-231 = assay: MTT growth assay, MDA-MB-231 line; assay type: cell-based; conditions: Homo sapiens, MDA-MB-231, 24 h, MTT assay at 24 hours, 10% FBS
Method: FIG. 30 illustrates HBB inhibits proliferation of MCF7 and MDA-MB-231 lines. Cells were plated in complete media in the presence of serum (10% FBS) and cultured at 37° C. with 5% CO2 and treated with HBB or DMSO vehicle. Growth was measured at 24 hours by MTT assay. Results were converted to percent growth of control and represented as mean±S.E. (n=8).

CYP3A4 epoxygenase = CYP3A4 epoxygenase (Homo sapiens, UniProt P08684); assay: CYP3A4 Supersome epoxygenase assay: EET synthesis from arachidonic acid, LC-ESI-MS/MS; conditions: for inhibition of CYP3A4-mediated EETs synthesis: CYP3A4 Supersome, arachidonic acid 60 uM, 30 minutes, 37 C
Method: Measurements are reported as percentage of control reactions performed with vehicle but no compound. A ^13C-EET recovery standard was used to control for recovery of EETs from extractions. […] EET measurements in these Supersome experiments are expressed as percentage of control reactions. Absolute EET measurements are determined by subtraction of regioisomer values in a baseline reaction lacking NADPH. Measurements were performed in triplicate and values are expressed as the mean±SD.
After the reaction, EETs were then extracted with 1 mL dichloromethane and reconstituted in methanol and analyzed by LC-ESI-MS/MS.

STAT3 = STAT3 phosphorylation Western blot in MCF7; assay type: cell-based
Method: Western blotting analysis was performed (C=control, M=metform and H=HBB).
Total protein was extracted and analyzed by Western-blotting with GAPDH as an internal control.

MCF-7 cell line = assay: MTT growth assay, MCF-7 line; assay type: cell-based; conditions: Homo sapiens, MCF7, 24 h, read-out: IC50, MCF-7 growth
Method: The growth of the MCF-7 line was measured by MTT assay at 24 hours. Cells were plated in complete media in the presence of serum (10% FBS) and cultured at 37° C. with 5% CO2 and treated with the biguanide or DMSO vehicle. Growth was measured at 24 hours by MTT assay.
Cells were plated in complete media in the presence of serum (10% FBS) and cultured at 37° C. with 5% CO2 and treated with HBB or DMSO vehicle. Growth was measured at 24 hours by MTT assay.

MCF7 line = assay: 14,15-EET protection against biguanide growth inhibition, MTT, MCF7; assay type: cell-based; conditions: MCF-7, exogenous (±)-14,15-EET (1 uM)
Method: Cells were plated in complete media in the presence of serum (10% FBS) and cultured at 37° C. with 5% CO2 and treated with biguanides for 24 hours in the presence or absence of 1 uM 14,15-EET. Growth was then measured at 24 hour by MTT assay.

MCF7 = assay: NAC protection against HBB growth inhibition, MTT, MCF7; assay type: cell-based; conditions: MCF7, 0.1 mM or 1 mM NAC, at IC50 of HBB
Method: FIG. 34 illustrates that N-acetylcysteine (NAC) protects MDA-MB-231 but not MCF7 against HBB-mediated growth inhibition. Cells were plated in complete media in the presence of serum (10% FBS) and cultured at 37° C. with 5% CO2 and treated with HBB in the presence of NAC or PBS control. Growth was then measured at 24 hours by MTT assay. Results were converted to percent growth of control and represented as mean±S.E. (n=8).

CYP3A4 = CYP3A4 protein level in MCF7 cells; assay type: cell-based; conditions: MCF7, metformin 1 mM, 48 hours
MCF-7 xenograft = MCF-7 xenograft in nude mice; assay type: in vivo; conditions: metformin 40 mg/kg/day in drinking water vs vehicle
Method: FIG. 3A. MCF-7 xenograft with 3×10^6 cells in the 2nd mammary fat pad on day 0. HBB (4 mg/kg ip daily) (ν) or PBS (ρ) treatment began on day 1. * indicates P<0.05. FIG. 3B. MDAMB-231 xenograft with 1×10^6 cells in the 2nd mammary fat pad on day 0. HBB (4 mg/kg ip daily) (ν) or PBS (ρ) treatment began on day 1. N=20 mice per arm for each study; error bars are SEM.
MCF-7 cells were implanted in the mammary fat pad of 4-5 week mice and treatment was initiated when tumor size was ≥15 mm^3 by 2 sequential measurements with randomized assignment to the treatment arms.
FIG. 44A. Nude mice were inoculated with 3×10^6 MCF-7 cells and treated with vehicle (Δ) HBB at the MTD (4 mg/kg/day ip) (▪). (* indicates P<0.05). Error bars are SEM. […] The dose limiting toxicity was weight loss. At the MTD there was a well-tolerated 4% reduction of weight at 42 days (P<0.0001; data not shown). FIG. 44B. Nude mice were inoculated with 1×10^6MDA-MB-231 cells and treated with HBB at the MTD (4 mg/kg/day ip).

[3] = tested on: AA metabolism to EET in MCF-7 cells; assay: EET regioisomer abundance in MCF-7 cells; assay type: cell-based; conditions: 0.10 mM metformin, 6 h
CYP3A4 nanodiscs = CYP3A4 nanodiscs (Homo sapiens, UniProt P08684); assay: CYP3A4 nanodisc spin shift titration; assay type: binding; conditions: no CPR; 156 uM and 1.1 mM metformin
CYP3A4 nanodiscs, sequence (P08684 whole entry): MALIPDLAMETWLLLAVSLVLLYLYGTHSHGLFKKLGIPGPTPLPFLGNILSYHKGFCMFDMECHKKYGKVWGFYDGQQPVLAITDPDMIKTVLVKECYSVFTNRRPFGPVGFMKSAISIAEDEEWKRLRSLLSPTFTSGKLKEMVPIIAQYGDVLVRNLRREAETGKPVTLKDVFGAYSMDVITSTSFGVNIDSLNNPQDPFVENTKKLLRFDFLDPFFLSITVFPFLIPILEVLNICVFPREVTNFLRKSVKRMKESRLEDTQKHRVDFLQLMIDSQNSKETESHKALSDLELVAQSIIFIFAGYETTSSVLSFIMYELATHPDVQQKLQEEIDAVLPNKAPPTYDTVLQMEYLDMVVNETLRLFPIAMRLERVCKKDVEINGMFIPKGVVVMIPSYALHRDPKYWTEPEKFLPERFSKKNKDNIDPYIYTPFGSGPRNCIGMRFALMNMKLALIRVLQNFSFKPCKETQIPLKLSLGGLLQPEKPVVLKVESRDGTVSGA

CYP3A4 epoxygenase, sequence (P08684 whole entry): as above

Structure (SMILES): CCCCCC1OC1CC=CCC=CCC=CCCCC(=O)O (racemic) [14,15-EET, (±)-14,15-epoxyeicosatrienoic acid, reference compound]
AMPK phosphorylation relative to EtOH control (AMPK [1]; MCF7, 1 uM 14,15-EET, 24 hours): decreased phosphorylation of AMPK | AMPK phosphorylation relative to control (AMPK [2]): no statistical significant change of AMPK phosphorylation

Structure (SMILES): CCCCCCNC(=N)NC(=N)NCc1ccccc1.Cl [HBB-HCl, N1-hexyl-N5-benzyl biguanide hydrochloride]
pIC50 (MDA-MB-231): 4.70 | concentration that activates AMPK phosphorylation (AMPK [1]): > 10 µM | fold more potent than metformin, activation of AMPK phosphorylation (AMPK [1]; vs metformin): > 100 fold | pIC50 (CYP3A4 epoxygenase; IC50, inhibition of CYP3A4 epoxygenase): ~4.30 | concentration that inhibits STAT3 phosphorylation (STAT3): > 10 µM | fold more potent than metformin, inhibition of Stat3 phosphorylation (STAT3; vs metformin): > 100 fold | pIC50 (MCF-7 cell line; MTT assay at 24 hours, 10% FBS): 4.70 | rescue of MCF-7 growth by 14,15-EET in the presence of the biguanide (MCF7 line): partially inhibited

pIC50 (MCF-7 cell line; MTT assay at 24 hours, 10% FBS): < 3.82
Structure (SMILES): CCCCCCNC(=N)NC(=N)NCc1ncc[nH]1 [HIB 2-yl, N1-hexyl-N5-((1H-imidazol-2-yl)methyl)-biguanide]

pIC50 (MCF-7 cell line; MTT assay at 24 hours, 10% FBS): 4.40
Structure (SMILES): CCCCCCNC(=N)NC(=N)NCc1ccncc1 [HPB, N1-hexyl-N5-(pyridin-4-ylmethyl) biguanidine]

Structure (SMILES): CC(=O)N[C@@H](CS)C(=O)O [NAC, N-acetylcysteine]
protection by NAC against HBB-mediated growth inhibition (MCF7): failed to protect

pIC50 (MCF-7 cell line): < 2.00
Structure (SMILES): CCCCNC(=N)NC(=N)N [buformin]
AMPK phosphorylation relative to control (AMPK [1]): increased phosphorylation of AMPK | rescue of MCF-7 growth by 14,15-EET in the presence of the biguanide (MCF7 line): rescues the MCF-7 line; also recorded: partial rescue

Structure (SMILES): CN(C)C(=N)N=C(N)N [metformin, reference compound]
inhibition of CYP3A4-mediated EETs synthesis (CYP3A4 epoxygenase): inhibit CYP3A4 epoxygenase; also recorded: significantly reduced EETs production | CYP3A4 protein level (CYP3A4): does not change CYP3A4 protein level | tumor growth, MCF-7 xenograft (MCF-7 xenograft): inhibits the MCF-7 xenograft | tumor growth, MCF-7 xenograft (MCF-7 xenograft; listed as Metformin): suppressed tumor growth | abundance of EET regioisomers [3]: reduced abundance | pIC50 (MCF-7 cell line; MTT assay at 24 hours, 10% FBS): < 2.00 | binding to CYP3A4 nanodiscs (CYP3A4 nanodiscs): binds to functional CYP3A4 epoxygenase nanodiscs | rescue of MCF-7 growth by 14,15-EET in the presence of the biguanide (MCF7 line): rescues the MCF-7 line; also recorded: partial rescue

Structure (SMILES): [H]/N=C(/N)N/C(=N/[H])NCCc1ccccc1 [phenformin, reference compound]
AMPK phosphorylation relative to control (AMPK [1]): increased phosphorylation of AMPK | inhibition of CYP3A4-mediated EETs synthesis (CYP3A4 epoxygenase): inhibit CYP3A4 epoxygenase | pIC50 (MCF-7 cell line; MTT assay at 24 hours, 10% FBS): 2.10 | rescue of MCF-7 growth by 14,15-EET in the presence of the biguanide (MCF7 line): rescues the MCF-7 line; also recorded: partial rescue
